# Laboratory results reported in patent publication US5707815A, “Mammalian monocyte chemoattractant protein receptors and assays using them” (Regents of the University of California, priority 1995, dated 1998).
# Entries after “also recorded” stand apart in the source; their conditions may differ.
# Key:
# MCP-1RB receptor = assay: Intracellular calcium mobilization (indo-1) in stably transfected MCP-1RB/293 cells; format: cell-based, human; conditions: MCP-1RB/293 cells
# Procedure: Calcium mobilization in 293 cells was then investigated. Transfected HEK-293 cells were grown until confluent, trypsinized briefly, washed with phosphate buffered saline containing 1 mg/ml BSA (PBS-BSA), and resuspended in serum-free MEM-EBSS supplemented with 1 mg/ml BSA and 10 mM HEPES (pH 7.0) at a density of 2×10^7 cells/ml. The cells were incubated in the dark at 37° C. for 20 min in the presence of 5-10 μg/ml indo-1 AM (Molecular Probes, Inc., Eugene, Oreg.). Nine volumes of PGS-BSA were added, and the cells were incubated for an additional 10 min at 37° C., pelleted by centrifugation, and washed twice with 50 ml of the PBS-BSA solution. Washed, indo-1-loaded cells were then resuspended in Hank's Balanced Salt Solution (1.3 mM Ca^2+) supplemented with 1 mg/ml BSA (HBS-BSA) at a density of approximately 0.5×10^6 cells/ml at room temperature. To measure intracellular calcium ([Ca^2+ ]i), 0.5 ml of the cell suspension was placed in a quartz cuvette in a Hitachi F-2000 fluorescence spectrophotometer. […] Intracellular calcium was measured by excitation at 350 nm and fluorescence emission detection at 490 nm (F1) and 410 nm (F2) wavelengths. The [Ca^2+ ]i was estimated by comparing the 490/410 fluorescence ratio after agonist application (R) to that of calibration ratios measured at the end of each run, according to the equation:
# [Ca^2+ ]i =Kd ×[(R--Rmin)/(Rmax
# where Rmax and Rmin represent the fluorescence ratio under saturating (1.3 mM Ca^2+) and nominally free (10 mM EGTA, Sigma Chemical Co.) calcium conditions, Kd is the dissociation constant of calcium for indo-1, R is the fluorescence ratio, and Sf2/Sb2 is the fluorescence ratio of free and bound indo-1 dye at 410 nm. See Thomas, AP and Delaville, F (1991) in Cellular Calcium, a Practical Approach, Oxford Univ. Press, pp. 1-54.
# To quantirate calcium responses, MCP-1 dose response curves were generated in each experiment and the results were expressed as a percent of the maximum calcium signal (at 300 nM MCP-1) measured in that experiment. The changes in [Ca^2+ ]i levels in response to each concentration of agonist were determined by subtracting the baseline from peak [Ca^2+ ]i levels, which were determined by averaging 5 seconds of data prior to agonist addition and surrounding the peak response, respectively. In experiments done to determine the role of extracellular calcium, 3 mM EGTA was added 60-90 seconds prior to MCP-1. […] All experiments were performed at room temperature.
# Inhibition of MCP-1RB receptor activation by bordetella pertussis toxin was investigated. Pertussis toxin (List Biological Labs, Inc., Campbell, Calif.) was dissolved in 0.01M sodium phosphate, pH 7.0, 0.05M sodium chloride and diluted into normal serum containing media at final concentrations of 0.1 ng/ml to 100 ng/ml, and incubated with cells overnight (14-16 h) at 37° C. The conditions of the Pertussis toxin treatment of the 293 cells were identical for calcium fluorimetric and adenylyl cyclase experiments. In the adenylyl cyclase experiments, the Pertussis toxin was added at the same time as [^3 H]adenine.
# Dose response curves generated in the calcium fluorimetric and adenylyl cyclase inhibition assays were fit by a nonlinear least squares program to the logistic equation:
# Effect=max effect/[1+(EC50 /(agonist)^n)]
# where n and EC50 represent the Hill coefficient and the agonist concentration that elicited a half-maximal response, respectively, and were derived from the fitted curve. Curve fitting was done with the computer program "Prism" (by Graph Pad, San Diego, Calif.). Results represent the mean ±SE. The 95% confidence intervals (CI) of the EC50 and IC50 values, when given, were calculated from the log EC50 and IC50 values, respectively.
# MM6 cells = assay: MCP-1 induced calcium flux in MM6 cells (calcium efflux assay); format: cell-based, human
# Procedure: Because monocytes are difficult to isolate in usable quantity and express less than 2000 high affinity MCP-1 binding sites per cell, a cultured cell line that responded well to MCP-1 had to be identified. Using the calcium effiux assay as described in Vu, Cell 64:1057-68(1991), MCP-1 induced calcium fluxes in various cell lines were measured. […] In contrast, a dose-dependent calcium flux was detected in MM6 cells, with half maximal stimulation at 4nM MCP-1.
substance,measurement,setting,value
monocyte chemoattractant protein-1 [MCP-1],concentration giving small but reproducible calcium signals,MCP-1RB receptor,100 pM
same,homologous desensitization to a second challenge with MCP-1,MCP-1RB receptor,refractory to activation by a second challenge; also recorded: desensitized the cells to a second addition
same,time to peak of calcium transients after addition,MCP-1RB receptor,4 to 8 s
same,EC50,MCP-1RB receptor; average of four full dose-response curves,2 to 4 nM
same,EC50,"MM6 cells; dose-dependent calcium flux, read-out: half maximal stimulation of calcium flux",4 nM
same,effect of prior exposure to the chemokine on the calcium response to the other chemokine,"MM6 cells; label = chemokine given first, MCP-1 versus RANTES (or MIP-1α)",partially blocked
